Measurements from patent publication US5599548A, “Skin care compositions containing fatty acid amides and retinol or retinyl ester” (priority 1995, dated 1997).
Entries after “also recorded” stand apart in the source; their conditions may differ. Where two headings read alike, the source gives them in different places.

Assays:
Human keratinocytes = assay: 3H-Thymidine incorporation (keratinocyte proliferation); assay type: cell-based; conditions: for activity at 0.001 µM / activity at 0.01 µM / activity at 1 µM / activity at 0.1 µM: Homo sapiens, Keratinocyte, 24 h; for activity at 1 µM: 10^-6 M; for activity at 0.1 µM: 10^-7 M
How it was run: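 Neonatal foreskin keratinocytes (second passage, serum-free medium) were plated at 40,000 cells/well and grown to 60–70% confluence. Compounds were added in triplicate 24 h after a medium change, with 1 μCi 3H-thymidine 4 h later, followed by a further 24 h incubation. TCA-precipitated label was counted by liquid scintillation and expressed as DPM/μg protein.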

[1] = test system: TGase I (keratinocyte transglutaminase level); assay: Transglutaminase (TGase I) ELISA assay (keratinocyte differentiation); assay type: cell-based, human
How it was run: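 Neonatal foreskin keratinocytes plated at 3,000 cells/well, treated with compounds after 4 days for 72 h, then freeze-fractured. TGase I measured by ELISA (mouse anti-human TGase primary, peroxidase anti-mouse secondary, o-phenylene diamine substrate, A492). Secondary-only background was subtracted; values are means ±s.d. of replicates.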

[2] = Table 7A, n = 9, read-out: mean Thymidine incorp/μg protein ± s.d
[3] = Table 7A, n = 9, read-out: thymidine incorporation, % control

## CCCCC/C=C\C/C=C\CCCCCCCC(=O)N(CCO)CCO [linoleoyl-DEA, Linoleoyl-Diethanolamide]
Human keratinocytes; Table 2A, RA, ROH 2.5 × 10^-8 M, linoleoyl-DEA 10^-9 M, alone or combined, n = 9, read-out: thymidine incorporation, % control
  activity at 0.001 µM: 105%
Human keratinocytes; Table 2A, RA, ROH 2.5 × 10^-8 M, linoleoyl-DEA 10^-9 M, alone or combined, normalized to ethanol control, n = 9, read-out: mean Thymidine incorp./μg protein ± s.d
  activity at 0.001 µM: 105 ± 15.8%
Human keratinocytes; Table 3A, RA 2.5 × 10^-9 M, RP 2.5 × 10^-7 M, linoleoyl-DEA 10^-8 M, alone or combined, n = 3, read-out: thymidine incorporation, % control
  activity at 0.01 µM: 99%
Human keratinocytes; [2]
  activity at 1 µM: 60.7 ± 8%
  activity at 0.1 µM: 101 ± 7.5%
Human keratinocytes; [3]
  activity at 1 µM: 61%
  activity at 0.1 µM: 101%
Human keratinocytes; Table 7A, 10^-8 M, n = 9, read-out: mean Thymidine incorp/μg protein ± s.d
  activity at 0.01 µM: 114 ± 20.6%
Human keratinocytes; Table 7A, 10^-8 M, n = 9, read-out: thymidine incorporation, % control
  activity at 0.01 µM: 114%
Human keratinocytes; Table 7A, 10^-9 M, n = 9, read-out: mean Thymidine incorp/μg protein ± s.d
  activity at 0.001 µM: 105 ± 15.8%
Human keratinocytes; Table 7A, 10^-9 M, n = 9, read-out: thymidine incorporation, % control
  activity at 0.001 µM: 105%
Human keratinocytes; Table 3A, RA 2.5 × 10^-9 M, RP 2.5 × 10^-7 M, linoleoyl-DEA 10^-8 M, alone or combined, n = 3
  mean Thymidine incorp./μg protein ± s.d: 1692 ± 48 DPM/μg protein
Human keratinocytes; concentrations as in the respective Example
  effect on keratinocyte proliferation, in words: minor, non-significant stimulatory effect on keratinocyte proliferation; also recorded: no effect on keratinocyte proliferation
[1]; Homo sapiens, Keratinocyte, 72 h, Table 2B, RA, ROH 2.5 × 10^-7 M, linoleoyl-DEA 10^-6 M, alone or combined, 72 h, n = 9, read-out: TGase (TG1) level, % control
  activity at 1 µM: 59%
[1]; Homo sapiens, Keratinocyte, Table 3B, RA, RP 2.5 × 10^-7 M, linoleoyl-DEA 10^-6 M, alone or combined, n = 3, read-out: TGase (TG1) level, % control
  activity at 1 µM: 85%
[1]; Homo sapiens, Keratinocyte, Table 8A, 10^-6 M, n = 3, read-out: TGase, % control
  activity at 1 µM: 87%
[1]; Homo sapiens, Keratinocyte, Table 8A, 10^-7 M, n = 3, read-out: TGase, % control
  activity at 0.1 µM: 80%
[1]; Homo sapiens, Keratinocyte, Table 8A, 10^-8 M, n = 3, read-out: TGase, % control
  activity at 0.01 µM: 86%
[1]; Homo sapiens, Keratinocyte, Table 8A, 10^-9 M, n = 3, read-out: TGase, % control
  activity at 0.001 µM: 85%
[1]; Homo sapiens, Keratinocyte, Table 8B, 10^-6 M, n = 3, read-out: TGase, % control
  activity at 1 µM: 37%
[1]; Homo sapiens, Keratinocyte, Table 8B, 10^-10 M, n = 3, read-out: TGase, % control
  activity at 0.0001 µM: 66%
[1]; Table 2B, RA, ROH 2.5 × 10^-7 M, linoleoyl-DEA 10^-6 M, alone or combined, 72 h, normalized to ethanol control, n = 9
  mean TGase ± s.d: 0.594 ± 0.773
[1]; Table 3B, RA, RP 2.5 × 10^-7 M, linoleoyl-DEA 10^-6 M, alone or combined, n = 3
  mean TGase ± s.d: 0.186 ± 0.058
[1]; Table 8A, 10^-6 M, n = 3
  mean TGase ± s.d: 0.186 ± 0.058
[1]; Table 8A, 10^-7 M, n = 3
  mean TGase ± s.d: 0.175 ± 0.059
[1]; Table 8A, 10^-8 M, n = 3
  mean TGase ± s.d: 0.188 ± 0.046
[1]; Table 8A, 10^-9 M, n = 3
  mean TGase ± s.d: 0.185 ± 0.031
[1]; Table 8B, 10^-6 M, n = 3
  mean TGase ± s.d: 0.037 ± 0.008
[1]; Table 8B, 10^-10 M, n = 3
  mean TGase ± s.d: 0.080 ± 0.030
